Source: patent US20090036497A1, “ECTOPARASITE CONTROL METHOD” (priority 2007, published 2009)

How the values were obtained:
adult H. irritans exigua = test: Adult H. irritans exigua feeding assay (blood meal assay); assay type: in vivo
Experimental: Adult H. irritans exigua Feeding Assay
A blood meal assay was used to determine the LC50 for test compound (3-bromo-1-(3-chloro-2-pyridinyl)-N-[4-cyano-2-methyl-6-[(methylamino)carbonyl]phenyl]-1H-pyrazole-5-carboxamide) on adult H.irritans exigua. Six (6) serial dilutions of the test compound were prepared in decoagulated bovine blood that was stored refrigerated. Ivermectin was included as a positive control compound and a negative control was included in each assay. Flies were collected with a net immediately before each assay from yarded commercial cattle. About 100 adults were introduced into a mesh cage (30×30×30 cm) containing one cotton gauze (4×4×1 cm) soaked in one blood/insecticide concentration. There were 3 replicate cages of each blood/insecticide concentration. Blood gauzes were replaced every 12 hours. The untreated control cages received untreated decoagulated blood. All cages were labelled and stored for 72 hours at 25-27° C. in the dark at ambient relative humidity (70-85%). […] Data was subjected to log-probit analysis to determine the LC50 if there is a dose response in the assay.

Cat Fleas (C. felis) = test: In vivo evaluation against artificial infestations with cat fleas on dogs; details: for Flea efficacy compared to the untreated control: topical line-on (test compound 60 mg/kg in NMP); for Flea efficacy (%) compared to the untreated control: topical line-on, test compound 60 mg/kg in NMP
Text: (§1) In vivo evaluation Against Artificial Infestations With Cat Fleas (C. felis) and Brown Dog Ticks (R. sanguineus) on Dogs
(§2) Twenty five dogs were used in this study that investigated the efficacy of test compound (3-bromo-1-(3-chloro-2-pyridinyl)-N-[4-cyano-2-methyl-6-[(methylamino)carbonyl]phenyl]-1H-pyrazole-5-carboxamide) against fleas and ticks. Two groups (one treated and one untreated) of five dogs were used to evaluate the flea efficacy whilst two groups of five dogs (one treated and one untreated) were used to investigate the tick efficacy. The dogs in the respective groups were infested weekly with 40 unfed adult ticks and 100 cat fleas. One group was treated with ADVANTIX and served as a positive control. The dogs in this group were infested simultaneously with fleas and ticks. Test compound was formulated in NMP. The treatment was applied topically via syringe on the dorsal line of the animals as a line-on at 60 mg/kg dose rate. The efficacy of the compound was assessed by weekly tick and flea counts. The weekly counts generated in the treated groups were compared to the positive and negative untreated control (UTC) group counts to evaluate efficacy of Test compound.

[1] = test system: Brown Dog Ticks (R. sanguineus); test: In vivo evaluation against artificial infestations with brown dog ticks on dogs; details: for Tick efficacy (%) compared to the untreated control: topical line-on, test compound 60 mg/kg in NMP
Text: as §1, §2

[2] = test system: cat flea (Ctenocephalides felis Bouche); test: In vivo evaluation against artificial infestations with cat fleas on mice; details: CD-1 mouse, 10 mg/kg oral in propylene glycol/glycerol formal (60:40), fleas applied 2 hours after dosing, evaluated 48 hours after flea application
Experimental: In vivo Evaluation Against Artificial Infestations With Cat Fleas (C. felis) on Mice
For evaluating control of the cat flea (Ctenocephalides felis Bouche), a CD-1® mouse (about 30 g, male, obtained from Charles River Laboratories, Wilmington, Mass.) was orally dosed with test compound in an amount of 10 mg/kg solubilized in propylene glycol/glycerol formal (60:40). Two hours after oral administration of the test compound, approximately 8 to 16 adult fleas were applied to each mouse. The fleas were then evaluated for mortality 48 hours after flea application to the mouse. 3-bromo-1-(3-chloro-2-pyridinyl)-N-[4-cyano-2-methyl-6-[(methylamino)carbonyl]phenyl]-1H-pyrazole-5-carboxamide caused 45% mortality.

[3] = 200 ppb in bovine blood, exposure time 7 hr
[4] = 200 ppb in bovine blood, exposure time 17 hr
[5] = 200 ppb in bovine blood, exposure time 24 hr
[6] = 400 ppb in bovine blood, exposure time 7 hr
[7] = 400 ppb in bovine blood, exposure time 17 hr
[8] = 400 ppb in bovine blood, exposure time 24 hr
[9] = 600 ppb in bovine blood, exposure time 7 hr
[10] = 600 ppb in bovine blood, exposure time 17 hr
[11] = 600 ppb in bovine blood, exposure time 24 hr

22,23-dihydroavermectin B1 [Ivermectin, reference compound]
% Adult mortality (adult H. irritans exigua; [3]): 78.5%
% Adult mortality (adult H. irritans exigua; [4]): 91.8%
% Adult mortality (adult H. irritans exigua; [5]): 93.1%
% Adult mortality (adult H. irritans exigua; [6]): 80.1%
% Adult mortality (adult H. irritans exigua; [7]): 94.2%
% Adult mortality (adult H. irritans exigua; [8]): 98.0%
% Adult mortality (adult H. irritans exigua; [9]): 86.0%
% Adult mortality (adult H. irritans exigua; [10]): 95.5%
% Adult mortality (adult H. irritans exigua; [11]): 100.0%

CNC(=O)c1cc(C#N)cc(C)c1NC(=O)c1cc(Br)nn1-c1ncccc1Cl [Test compound, 3-bromo-1-(3-chloro-2-pyridinyl)-N-[4-cyano-2-methyl-6-[(methylamino)carbonyl]phenyl]-1H-pyrazole-5-carboxamide]
Flea efficacy compared to the untreated control (Cat Fleas (C. felis); 2 days post-treatment): over 99.5%
Flea efficacy compared to the untreated control (Cat Fleas (C. felis); 9 days post-treatment): over 99.5%
Flea efficacy compared to the untreated control (Cat Fleas (C. felis); 16 days post-treatment): over 99.5%
Flea efficacy compared to the untreated control (Cat Fleas (C. felis); 30 days post-treatment): 97.3%
Flea efficacy (%) compared to the untreated control (Cat Fleas (C. felis); Day 2): 99.6%
Flea efficacy (%) compared to the untreated control (Cat Fleas (C. felis); Day 9): 99.7%
Flea efficacy (%) compared to the untreated control (Cat Fleas (C. felis); Day 16): 99.7%
Flea efficacy (%) compared to the untreated control (Cat Fleas (C. felis); Day 23): 98.7%
Flea efficacy (%) compared to the untreated control (Cat Fleas (C. felis); Day 29): 97.3%
% Adult mortality (adult H. irritans exigua; [3]): 77.3%
% Adult mortality (adult H. irritans exigua; [4]): 78.8%
% Adult mortality (adult H. irritans exigua; [5]): 80.3%
% Adult mortality (adult H. irritans exigua; [6]): 78.8%
% Adult mortality (adult H. irritans exigua; [7]): 89.8%
% Adult mortality (adult H. irritans exigua; [8]): 94.9%
% Adult mortality (adult H. irritans exigua; [9]): 80.5%
% Adult mortality (adult H. irritans exigua; [10]): 94.7%
% Adult mortality (adult H. irritans exigua; [11]): 96.5%
Tick efficacy higher than the ADVANTIX ([1]; 48 hours after treatment, difference to ADVANTIX): 30%
Tick efficacy compared to the negative control ([1]; topical line-on (test compound 60 mg/kg in NMP), 48 hours after treatment): 74%
Tick efficacy compared to the untreated control ([1]; topical line-on (test compound 60 mg/kg in NMP), 9 days post-treatment): over 94.9%
Tick efficacy compared to the untreated control ([1]; topical line-on (test compound 60 mg/kg in NMP), 16 days post-treatment): 90.5%
Tick efficacy compared to the untreated control ([1]; topical line-on (test compound 60 mg/kg in NMP), 23 days post-treatment): 90.6%
Tick efficacy compared to the untreated control ([1]; topical line-on (test compound 60 mg/kg in NMP), 30 days post treatment): 86.2%
Tick efficacy (%) compared to the untreated control ([1]; Day 2): 74.0%
Tick efficacy (%) compared to the untreated control ([1]; Day 9): 94.9%
Tick efficacy (%) compared to the untreated control ([1]; Day 16): 95.0%
Tick efficacy (%) compared to the untreated control ([1]; Day 23): 90.6%
Tick efficacy (%) compared to the untreated control ([1]; Day 29): 86.2%
flea mortality [2]: 45%
